Reference: ChEMBL document CHEMBL5244260, “Aldose reductase and protein tyrosine phosphatase 1B inhibitors as a promising therapeutic approach for diabetes mellitus” (Eur J Med Chem, 2020)

What was measured:
[1] = molecular target: Aldo-keto reductase family 1 member B1 (Homo sapiens, UniProt P15121); assay: Inhibition of ALR2 (unknown origin)
[2] = molecular target: T1, Tyrosine-protein phosphatase non-receptor type 1 (Homo sapiens, UniProt P18031); assay: Inhibition of PTP1B (unknown origin) using OMFP as substrate by fluorescence assay
T1 sequence (P18031 whole entry): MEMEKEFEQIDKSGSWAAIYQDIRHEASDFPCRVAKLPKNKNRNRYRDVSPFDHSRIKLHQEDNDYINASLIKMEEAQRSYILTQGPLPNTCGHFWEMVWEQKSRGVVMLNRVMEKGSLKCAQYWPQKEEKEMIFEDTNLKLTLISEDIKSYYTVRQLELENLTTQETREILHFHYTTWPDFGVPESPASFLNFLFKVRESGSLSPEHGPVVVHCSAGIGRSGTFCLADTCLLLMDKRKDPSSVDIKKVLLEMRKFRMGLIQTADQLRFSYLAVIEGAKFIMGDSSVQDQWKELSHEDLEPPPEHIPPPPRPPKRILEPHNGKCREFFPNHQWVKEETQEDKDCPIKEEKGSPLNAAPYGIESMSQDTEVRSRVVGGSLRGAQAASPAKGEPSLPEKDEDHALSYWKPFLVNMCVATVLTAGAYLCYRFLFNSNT

[3] = Inhibition of ALR2 in calf lens using D,L-glyceraldehyde as substrate in presence of NADPH by spectrophotometric assay; type: tissue-based, Bos taurus
Homo sapiens [4] = species on record: Homo sapiens; assay: Selectivity ratio of IC50 for human PTP1B (1 to 321 residues) to IC50 for human CD45 (564 to […] residues)
[5] = molecular target: T1, Tyrosine-protein phosphatase non-receptor type 1; assay: Inhibition of human PTP1B (1 to 321 residues) expressed in Escherichia coli using FDP as substrate
[6] = Inhibition of ALR2 in rat lens using D,L-glyceraldehyde as substrate in presence of NADPH; type: tissue-based
[7] = molecular target: T2, Receptor-type tyrosine-protein phosphatase C (Homo sapiens, UniProt P08575); assay: Inhibition of human CD45 (564 to […] residues) expressed in Escherichia coli using FDP as substrate incubated for 10 min
T2 sequence (P08575 whole entry): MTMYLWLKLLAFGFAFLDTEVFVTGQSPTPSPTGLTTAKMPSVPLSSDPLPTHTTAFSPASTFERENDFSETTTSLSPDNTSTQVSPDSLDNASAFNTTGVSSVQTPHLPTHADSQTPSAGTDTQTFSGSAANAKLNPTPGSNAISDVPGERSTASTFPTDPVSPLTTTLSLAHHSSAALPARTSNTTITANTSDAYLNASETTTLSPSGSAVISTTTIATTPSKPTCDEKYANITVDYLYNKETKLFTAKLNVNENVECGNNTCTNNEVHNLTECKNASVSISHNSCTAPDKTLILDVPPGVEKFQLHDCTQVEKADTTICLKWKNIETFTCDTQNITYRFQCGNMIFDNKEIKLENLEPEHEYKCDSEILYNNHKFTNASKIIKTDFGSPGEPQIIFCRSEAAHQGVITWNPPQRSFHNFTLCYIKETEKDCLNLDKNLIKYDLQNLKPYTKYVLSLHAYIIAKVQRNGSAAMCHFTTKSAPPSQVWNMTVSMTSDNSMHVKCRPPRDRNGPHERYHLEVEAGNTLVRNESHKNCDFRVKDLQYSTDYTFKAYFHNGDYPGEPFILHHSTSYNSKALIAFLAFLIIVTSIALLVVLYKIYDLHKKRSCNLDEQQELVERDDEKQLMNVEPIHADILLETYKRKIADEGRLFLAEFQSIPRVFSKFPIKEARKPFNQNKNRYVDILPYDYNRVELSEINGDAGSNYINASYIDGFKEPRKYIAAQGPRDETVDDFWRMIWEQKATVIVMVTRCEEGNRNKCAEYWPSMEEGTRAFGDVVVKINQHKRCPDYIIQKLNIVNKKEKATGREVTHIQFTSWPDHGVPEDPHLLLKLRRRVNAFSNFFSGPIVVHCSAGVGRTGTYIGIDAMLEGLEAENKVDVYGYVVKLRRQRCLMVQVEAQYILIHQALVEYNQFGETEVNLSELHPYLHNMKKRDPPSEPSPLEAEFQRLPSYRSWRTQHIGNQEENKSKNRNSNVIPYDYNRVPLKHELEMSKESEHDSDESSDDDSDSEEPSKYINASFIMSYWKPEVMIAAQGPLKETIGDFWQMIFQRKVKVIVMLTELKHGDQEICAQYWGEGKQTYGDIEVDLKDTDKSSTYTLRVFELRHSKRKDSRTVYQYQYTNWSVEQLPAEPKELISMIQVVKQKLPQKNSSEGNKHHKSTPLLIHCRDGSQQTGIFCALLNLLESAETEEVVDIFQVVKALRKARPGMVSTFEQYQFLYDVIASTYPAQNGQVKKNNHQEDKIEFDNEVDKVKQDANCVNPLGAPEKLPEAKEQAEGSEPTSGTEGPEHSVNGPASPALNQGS

Homo sapiens [8] = species on record: Homo sapiens; assay: Selectivity ratio of Ki for PTP1B (unknown origin) to Ki for TCPTP (unknown origin)
[9] = molecular target: T1, Tyrosine-protein phosphatase non-receptor type 1; assay: Inhibition of PTP1B (unknown origin) assessed as inhibition constant
[10] = molecular target: T1, Tyrosine-protein phosphatase non-receptor type 1; assay: Inhibition of PTP1B (unknown origin)
[11] = molecular target: T1, Tyrosine-protein phosphatase non-receptor type 1; assay: Inhibition of human PTP1B (1 to 298 residues) expressed in Escherichia coli using FDP as substrate by microplate reader
[12] = molecular target: T1, Tyrosine-protein phosphatase non-receptor type 1; assay: Inhibition of human PTP1B (1 to 411 residues) expressed in Escherichia coli BL21 (DE3) using GNGDpYMPMSPKS as phosphopeptide substrate incubated for 30 mins by malachite green reagent assay

Structure (SMILES): O=C(O)CNC(=O)c1ccc(N2C(=O)/C(=C/c3cn(-c4ccccc4)nc3-c3cccc(F)c3)SC2=S)cc1
- IC50 [1]: 40 nM

Structure (SMILES): Cc1ccc(S(=O)(=O)N(Cc2ccc(C(=O)C(F)(F)P(=O)(O)O)cc2)Cc2ccc(C(=O)C(F)(F)P(=O)(O)O)cc2)cc1
- IC50 [2]: 500 nM

Structure (SMILES): O=C(O)CCCCO/N=C(\c1cccc(C(F)(F)F)c1)c1ccncn1
- IC50 [3]: 12000 nM

Structure (SMILES): O=C(OCc1ccccc1)C(Cc1ccc(C(F)(F)P(=O)(O)O)cc1)(Cc1ccc(C(F)(F)P(=O)(O)O)cc1)C(=O)OCc1ccccc1
- Ratio IC50 (Homo sapiens [4]): 250
- IC50 [5]: 40 nM

Structure (SMILES): C/C(=N\NC(=S)Nc1cccc(Br)c1)c1ccc2c(c1)NC(=O)CO2
- IC50 [1]: 520 nM

Structure (SMILES): O=C1C(=O)N(C2(C(=O)O)CCCCC2)C(=O)N1Cc1ccc(Cl)cc1Cl
- IC50 [6]: 50 nM

Structure (SMILES): O=C(c1ccccc1)C(Cc1ccc(C(F)(F)P(=O)(O)O)c(Cl)c1)c1ccccc1 (stereo not drawn)
- IC50 [5]: 6 nM
- IC50 [7]: > 50000 nM

Structure (SMILES): COC(=O)c1c(O)cccc1OC/C=C/c1ccc(F)c(-c2cc(C(=O)O)no2)c1
- Ratio Ki (Homo sapiens [8]): 20
- Ki [9]: 6900 nM

Structure (SMILES): CC(C)OC(=O)C(Cc1ccc(C(F)(F)P(=O)(O)O)cc1)(Cc1ccc(C(F)(F)P(=O)(O)O)cc1)C(=O)OC(C)C
- Ratio IC50 (Homo sapiens [4]): 250
- IC50 [5]: 40 nM

Structure (SMILES): CCCCCCCCCCCCCCCCOc1ccccc1NC(=O)c1ncccc1C(=O)O
- IC50 [10]: 140 nM

Structure (SMILES): O=P(O)(O)C(F)(F)c1ccc(C[C@](c2ccc(C(F)(F)P(=O)(O)O)cc2)(c2ccc(F)c(F)c2)n2nnc3ccccc32)cc1
- IC50 [11]: 13 nM

Structure (SMILES): CCc1cc(CC(NC(C)=O)C(=O)NCCCCOc2cc(Cl)cc(O)c2C(=O)OC)ccc1N(C(=O)C(=O)O)c1ccccc1C(=O)O (stereo not drawn)
- Ratio Ki (Homo sapiens [8]): 6

Structure (SMILES): O=C1CN(c2ccc(-c3ccc[nH]3)cc2O)S(=O)(=O)N1
- IC50 [12]: 80 nM

Structure (SMILES): CCCCCCCC/C(=C\Cn1oc(=O)n(CC(=O)O)c1=O)c1cccc(OCc2nc(-c3ccc(C(F)(F)F)cc3)oc2C)c1
- IC50 [10]: 160 nM

Structure (SMILES): CS(=O)(=O)Oc1c(Cl)cccc1Cc1ccc(N2CC(=O)NS2(=O)=O)c(O)c1
- IC50 [12]: 80 nM

Structure (SMILES): O=[N+]([O-])c1cc(S(=O)(=O)C(F)(F)F)ccc1Oc1ccc(S(=O)(=O)c2ccc(Oc3ccc(S(=O)(=O)C(F)(F)F)cc3[N+](=O)[O-])cc2)cc1
- IC50 [10]: 400 nM

Structure (SMILES): O=C(O)CCCCCO/N=C(\c1ccnnc1)c1cccc(C(F)(F)F)c1
- IC50 [3]: 10000 nM

Structure (SMILES): CC(C(=O)O)N1C(=O)C(=O)N(Cc2ccc(Cl)c(Cl)c2)C1=O (stereo not drawn)
- IC50 [6]: 75 nM

Structure (SMILES): O=C(c1ccc(CN(Cc2ccc(C(=O)C(F)(F)P(=O)(O)O)cc2)S(=O)(=O)c2cc(F)ccc2F)cc1)C(F)(F)P(=O)(O)O
- IC50 [2]: 500 nM

Structure (SMILES): O=C(c1ccccc1)C(Cc1ccc(C(F)(F)P(=O)(O)O)c(Br)c1)c1ccccc1 (stereo not drawn)
- IC50 [5]: 6 nM
- IC50 [7]: > 50000 nM

Structure (SMILES): COC(=O)c1c(O)cccc1OC/C=C/c1cccc(-c2onc(C(=O)O)c2N)c1
- Ratio Ki (Homo sapiens [8]): 20
- Ki [9]: 2100 nM

Structure (SMILES): O=C(c1ccc(CN(Cc2ccc(C(=O)C(F)(F)P(=O)(O)O)cc2)S(=O)(=O)c2ccc(Br)cc2OC(F)(F)F)cc1)C(F)(F)P(=O)(O)O
- IC50 [2]: 500 nM

Structure (SMILES): O=P(O)(O)C(F)(F)c1ccc(C[C@](/C=C/c2ccccc2)(c2nc3ccccc3s2)n2nnc3ccccc32)cc1
- IC50 [11]: 23 nM

Structure (SMILES): COC(=O)C(Cc1ccc(C(F)(F)P(=O)(O)O)cc1)(Cc1ccc(C(F)(F)P(=O)(O)O)cc1)C(=O)OCc1ccccc1
- Ratio IC50 (Homo sapiens [4]): 250
- IC50 [5]: 40 nM

Structure (SMILES): O=[N+]([O-])c1ccccc1Sc1ccc(O)cc1
- IC50 [3]: 580 nM

Structure (SMILES): O=C1CN(c2c(O)cc(CC3CCCCC3)cc2F)S(=O)(=O)N1
- IC50 [12]: 80 nM
